Test results published in patent publication US20180320217A1, “METHODS FOR SAMPLING AND MEASURING ORAL LAVAGE PROTEINS” (The Procter & Gamble Company, priority 2017, published 2018).
Several values for one entry are separate records, joined by “and”; a condition that tells them apart may be missing. Identical values can stand only once. Entries after “also recorded” stand apart in the source; their conditions may differ. Counter-ions that a name gives are not always drawn.

Columns and labels:
[1] = target: T1, Malate dehydrogenase (Sus scrofa, UniProt P00346); assay: Effect of concentrations of NAD+ on formation of formazan dyes (FIG. 5); format: biochemical; set-up: purchased Sigma-Aldrich 10127248001 / 10127914001 (MDH); settings: 2 mM WST-8, 15 mM malate, 1.5 units malate dehydrogenase
T1 sequence (P00346 25-338): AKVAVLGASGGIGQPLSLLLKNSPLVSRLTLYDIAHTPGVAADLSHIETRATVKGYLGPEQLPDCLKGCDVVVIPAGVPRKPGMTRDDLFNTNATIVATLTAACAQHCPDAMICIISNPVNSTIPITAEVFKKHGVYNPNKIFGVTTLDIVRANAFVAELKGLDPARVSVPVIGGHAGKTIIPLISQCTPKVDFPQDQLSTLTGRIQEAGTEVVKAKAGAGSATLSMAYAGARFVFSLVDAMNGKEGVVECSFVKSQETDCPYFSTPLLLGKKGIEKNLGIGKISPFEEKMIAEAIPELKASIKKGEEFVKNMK
Procedure: To determine optimal conditions for quantifying enzymes in the gingival brush samples, oral lavage and gingival plaques, an experiment was carried out to determine the effect of NAD+ on conversion of tetrazolium salts to formazan dyes. […] Absorbance was taken at every 5 minutes for 2 hours.

[2] = test system: diaphorase; assay: Formation of formazan dyes: NADH and diaphorase, absence of malate (TABLE 7); format: biochemical, Clostridium kluyveri; settings: NADH and diaphorase, absence of malate
[3] = test system: diaphorase; assay: Formation of formazan dyes: NADH, diaphorase and malate (TABLE 8); format: biochemical, Clostridium kluyveri; settings: NADH, diaphorase and malate
[4] = test system: Malate dehydrogenase and diaphorase; assay: Formation of formazan dyes: Malate dehydrogenase and diaphorase, absence of malate (TABLE 9); format: biochemical, pig heart
[5] = test system: Malate dehydrogenase and diaphorase; assay: Formation of formazan dyes: Malate dehydrogenase, diaphorase and malate (TABLE 10); format: biochemical, pig heart
[6] = test system: oral lavage; assay: Formation of formazan dyes: oral lavage and diaphorase, not malate (TABLE 11); format: biochemical, human
[7] = test system: oral lavage; assay: Formation of formazan dyes: oral lavage, malate and diaphorase (TABLE 12); format: biochemical, human; settings: oral lavage, malate and diaphorase
[8] = test system: diaphorase; assay: Formation of formazan dyes: only diaphorase, not malate (TABLE 13); format: biochemical, Clostridium kluyveri; settings: mean of three experiments
[9] = test system: diaphorase; assay: Formation of formazan dyes: only diaphorase and malate (TABLE 14); format: biochemical, Clostridium kluyveri; settings: mean of three experiments
[10] = Formation of formazan dyes: NADH and 1-methoxy PMS, absence of malate (TABLE 15); format: biochemical
[11] = Formation of formazan dyes: NADH, malate and 1-methoxy PMS (TABLE 16); format: biochemical; settings: monosodium salt
[12] = test system: oral lavage; assay: Formation of formazan dyes: oral lavage and 1-Methoxy PMS, absence of malate (TABLE 19); format: biochemical, human; settings: monosodium salt
[13] = Formation of formazan dyes: control buffer and 1-Methoxy PMS, absence of malate (TABLE 21); format: biochemical; settings: monosodium salt
[14] = Formation of formazan dyes: control buffer, malate and 1-Methoxy PMS (TABLE 22); format: biochemical
[15] = test system: diaphorase; assay: Effect of concentrations of tetrazolium salts on formation of formazan dyes (FIGS. 4A-4G); format: biochemical; settings: 15 mM NADH+H, 20 μg diaphorase, pH 7.5; FIGS. 4A to 4G
Procedure: On the idea that higher concentrations of tetrazolium salts in the assay buffer would likely result in more formazan dyes in the reaction, various concentrations of tetrazolium salts were added to a reaction buffer and the formation of formazan dyes were measured at 0, 30 and 60 minutes. […] The reactions were performed at room temperature. Absorbance was taken at 0, 30 and 60 minutes.

[16] = target: T1, Malate dehydrogenase; assay: Formation of formazan dyes: Malate dehydrogenase and 1-Methoxy PMS, absence of malate (TABLE 17); format: biochemical, pig heart; set-up: L-malate dehydrogenase (pig heart); purchased Sigma-Aldrich 10127248001 / 10127914001
[17] = UV absorbance analysis of formazan products, TABLE 6; settings: in the presence of 1-methoxy PMS
[18] = target: T1, Malate dehydrogenase; assay: Effect of concentrations of malate on formation of formazan dyes (FIG. 6); format: biochemical; set-up: purchased Sigma-Aldrich 10127248001 / 10127914001 (MDH); settings: 2 mM WST-8, 128.5 μM NAD+, 1.5 units malate dehydrogenase
Procedure: Substrate concentrations are important parameters in an enzymatic assay. An experiment was carried out to determine the effect of malate concentrations on formation of formazan dyes. […] Absorbance was measured every 5 minutes for 2 hours. […] But at low concentrations from 0.001 mM to 15.6 mM, formation of formazan dyes was positively correlated with malate concentrations.

In the case of `NC(=O)c1ccc[n+]([C@@H]2O[C@H](COP(=O)([O-])OP(=O)(O)OC[C@H]3O[C@@H](n4cnc5c(N)ncnc54)[C@H](O)[C@@H]3O)[C@@H](O)[C@H]2O)c1` [NAD+, Nicotinamide adenine dinucleotide], the “amount of formazan formation versus NAD+ concentration” value [1] is reported as “proportional to the concentrations of NAD+”.

For `COc1cc([N+](=O)[O-])ccc1-[n+]1nc(-c2ccc(S(=O)(=O)[O-])cc2S(=O)(=O)[O-])nn1-c1ccc([N+](=O)[O-])cc1.[Na+]` [WST-8, 5-(2,4-disulfophenyl)-3-(2-methoxy-4-nitrophenyl)-2-(4-nitrophenyl)-2H-tetrazolium, inner salt, monosodium salt], the “Formation of formazan dyes, absorbance, Means 0 h” value (“Formation … Means 0 h” for short) ([2]; 0 h) was 3.54, the “Formation of formazan dyes, absorbance, Means 1 h” value (shortened to “Formation … Means 1 h”) ([2]; 1 h) was 3.72 and the “Formation of formazan dyes, absorbance, Means 2 h” value (“Formation … Means 2 h” below) ([2]; 2 h) was 3.77. For the same compound, the “Formation of formazan dyes, absorbance, Means 3 h” value (from here on “Formation … Means 3 h”) ([2]; 3 h) was 3.77, the “Formation of formazan dyes, absorbance, Means 4 h” value (shortened to “Formation … Means 4 h”) ([2]; 4 h) was 3.63 and the “Formation of formazan dyes, absorbance, Means 6 h” value (“Formation … Means 6 h” below) ([2]; 6 h) was 3.64. The “Formation of formazan dyes, absorbance, Means 8 h” value (from here on “Formation … Means 8 h”) ([2]; 8 h) was 3.66, the “Formation of formazan dyes, absorbance, Means 10 h” value (shortened to “Formation … Means 10 h”) ([2]; 10 h) was 3.65 and the “Formation of formazan dyes, absorbance, Means 12 h” value (“Formation … Means 12 h” for short) ([2]; 12 h) was 3.67. The “Formation … Means 0 h” value ([3]; 0 h) was 3.06, the “Formation … Means 1 h” value ([3]; 1 h) was 3.36 and the “Formation … Means 2 h” value ([3]; 2 h) was 3.47. For the same compound, the “Formation … Means 3 h” value ([3]; 3 h) was 3.53, the “Formation … Means 4 h” value ([3]; 4 h) was 3.50 and the “Formation … Means 6 h” value ([3]; 6 h) was 3.54. The “Formation … Means 8 h” value ([3]; 8 h) was 3.54, the “Formation … Means 10 h” value ([3]; 10 h) was 3.51 and the “Formation … Means 12 h” value ([3]; 12 h) was 3.45. The “Formation … Means 0 h” value ([4]; Malate dehydrogenase and diaphorase, absence of malate, 0 h) was 1.13, the “Formation … Means 1 h” value ([4]; Malate dehydrogenase and diaphorase, absence of malate, 1 h) was 1.84 and the “Formation … Means 2 h” value ([4]; Malate dehydrogenase and diaphorase, absence of malate, 2 h) was 2.15. The “Formation … Means 3 h” value ([4]; Malate dehydrogenase and diaphorase, absence of malate, 3 h) was 2.32, the “Formation … Means 4 h” value ([4]; Malate dehydrogenase and diaphorase, absence of malate, 4 h) was 2.41 and the “Formation … Means 6 h” value ([4]; Malate dehydrogenase and diaphorase, absence of malate, 6 h) was 2.62. The “Formation … Means 8 h” value ([4]; Malate dehydrogenase and diaphorase, absence of malate, 8 h) was 2.72, the “Formation … Means 10 h” value ([4]; Malate dehydrogenase and diaphorase, absence of malate, 10 h) was 2.80 and the “Formation … Means 12 h” value ([4]; Malate dehydrogenase and diaphorase, absence of malate, 12 h) was 2.89. The “reduction of tetrazolium dye in the absence of substrate malate” value ([4]; malate dehydrogenase and diaphorase (TABLE 9)) was “partially reduced”, the “Formation … Means 0 h” value ([5]; Malate dehydrogenase, diaphorase and malate, 0 h) was 1.13 and the “Formation … Means 1 h” value ([5]; Malate dehydrogenase, diaphorase and malate, 1 h) was 1.93. For the same compound, the “Formation … Means 2 h” value ([5]; Malate dehydrogenase, diaphorase and malate, 2 h) was 2.36, the “Formation … Means 3 h” value ([5]; Malate dehydrogenase, diaphorase and malate, 3 h) was 2.65 and the “Formation … Means 4 h” value ([5]; Malate dehydrogenase, diaphorase and malate, 4 h) was 2.86. The “Formation … Means 6 h” value ([5]; Malate dehydrogenase, diaphorase and malate, 6 h) was 3.12, the “Formation … Means 8 h” value ([5]; Malate dehydrogenase, diaphorase and malate, 8 h) was 3.26 and the “Formation … Means 10 h” value ([5]; Malate dehydrogenase, diaphorase and malate, 10 h) was 3.30. For the same compound, the “Formation … Means 12 h” value ([5]; Malate dehydrogenase, diaphorase and malate, 12 h) was 3.28, the “conversion to reduced formazan dyes” value ([5]; malate dehydrogenase, diaphorase and malate (TABLE 10), monosodium salt) was “converted to reduced formazan dyes in a time-dependent fashion; also recorded: able to catalyze the reduction” and the “Formation … Means 0 h” value ([6]; oral lavage and diaphorase, not malate, 0 h) was 0.59. For the same compound, the “Formation … Means 1 h” value ([6]; oral lavage and diaphorase, not malate, 1 h) was 0.83, the “Formation … Means 2 h” value ([6]; oral lavage and diaphorase, not malate, 2 h) was 0.87 and the “Formation … Means 3 h” value ([6]; oral lavage and diaphorase, not malate, 3 h) was 0.84. The “Formation … Means 4 h” value ([6]; oral lavage and diaphorase, not malate, 4 h) was 0.82, the “Formation … Means 6 h” value ([6]; oral lavage and diaphorase, not malate, 6 h) was 0.88 and the “Formation … Means 8 h” value ([6]; oral lavage and diaphorase, not malate, 8 h) was 1.00. The “Formation … Means 10 h” value ([6]; oral lavage and diaphorase, not malate, 10 h) was 1.00, the “Formation … Means 12 h” value ([6]; oral lavage and diaphorase, not malate, 12 h) was 1.01 and the “reduction to formazan dyes by pooled oral lavage” value ([6]; pooled oral lavage of high bleeder group, diaphorase, no added malate (TABLE 11)) was “partially reduced to formazan dyes”. The “Formation … Means 0 h” value ([7]; 0 h) was 0.51, the “Formation … Means 1 h” value ([7]; 1 h) was 0.70 and the “Formation … Means 2 h” value ([7]; 2 h) was 0.80. The “Formation … Means 3 h” value ([7]; 3 h) was 0.84, the “Formation … Means 4 h” value ([7]; 4 h) was 0.85 and the “Formation … Means 6 h” value ([7]; 6 h) was 0.91. The “Formation … Means 8 h” value ([7]; 8 h) was 1.05, the “Formation … Means 10 h” value ([7]; 10 h) was 1.09 and the “Formation … Means 12 h” value ([7]; 12 h) was 1.33. For the same compound, the “Absorbance, formation of formazan dyes (Means)” value (“Absorbance, formation” below) ([8]; 0 h) was 0.22, the “Absorbance, formation” value ([8]; 1 h) was 0.38 and the “Absorbance, formation” value ([8]; 2 h) was 0.46. For the same compound, the “Absorbance, formation” value ([8]; 3 h) was 0.48, the “Absorbance, formation” value ([8]; 4 h) was 0.43 and the “Absorbance, formation” value ([8]; 6 h) was 0.46. The “Absorbance, formation” value ([8]; 8 h) was 0.44, the “Absorbance, formation” value ([8]; 10 h) was 0.44 and the “Absorbance, formation” value ([8]; 12 h) was 0.47. For the same compound, the “Absorbance, formation” value ([9]; 0 h) was 0.10, the “Absorbance, formation” value ([9]; 1 h) was 0.14 and the “Absorbance, formation” value ([9]; 2 h) was 0.16. For the same compound, the “Absorbance, formation” value ([9]; 3 h) was 0.19, the “Absorbance, formation” value ([9]; 4 h) was 0.21 and the “Absorbance, formation” value ([9]; 6 h) was 0.26. The “Absorbance, formation” value ([9]; 8 h) was 0.31, the “Absorbance, formation” value ([9]; 10 h) was 0.35 and the “Absorbance, formation” value ([9]; 12 h) was 0.38. The “formation of formazan dyes / precipitates with 1-methoxy PMS and NADH” value [10] was “converted to formazan dyes quickly”, the “Absorbance, formation” value ([10]; monosodium salt) was 3.65 and 3.66 and 3.67 and the “Absorbance, formation” value [11] was 3.37 and 3.42 and 3.41. For the same compound, the “Absorbance, formation” value [12] was 1.03 and 1.38 and 1.68 and 1.86, the “Absorbance, formation” value [13] was 0.44 and 0.55 and 0.49 and 0.62 and the “Means absorbance 0 h” value [14] was 0.19. For the same compound, the “Means absorbance 1 h” value [14] was 0.20, the “Means absorbance 2 h” value [14] was 0.23 and the “Means absorbance 3 h” value [14] was 0.26. For the same compound, the “concentration of tetrazolium salt at which absorbance reached peaks” value [15] was 2 mM, the “reduction by malate dehydrogenase alone” value [16] was “did not catalyze the reduction” and the “Absorbance, formation” value ([16]; monosodium salt) was 0.35 and 0.47.

With `O=[N+]([O-])c1ccc(-n2nc(-c3ccccc3)n[n+]2-c2ccc(/N=N/c3ccc(S(=O)(=O)O)cc3)cc2S(=O)(=O)[O-])cc1` [WST-9, 2-(4-Nitrophenyl)-5-phenyl-3-[4-(4-sulfophenylazo)-2-sulfophenyl]-2H-tetrazolium, monosodium salt] the “solubility of formazan products” value [17] was “form precipitates”.

In the case of `O=C(O)CC(O)C(=O)O` (stereo not drawn) [malate], the “malate concentrations that inhibited production of formazan dyes” value [18] is reported as “above 65 mM”.
